Assay results from the NIST ThermoML archive (doi:10.1021/je700206y).
Numbers after ± are expanded uncertainties.

Experiments:
[1] = Liquid; for mass density: 293.2 K, 101.33 kPa; for Normal boiling temperature: Distillation
[2] = refractive index (Na D-line) (dimensionless); settings: 293.2 K; 101.33 kPa; Liquid; Standard Abbe refractometry
[3] = Boiling temperature at pressure P; settings: 1.733 kPa; Liquid; Distillation

mass density [1] [kg/m3]	Normal boiling temperature [1] [°C]	refractive index [2]	Boiling temperature at pressure P [3] [°C]	SMILES
1220.04 ± 1	101.2 ± 0.2	1.37144 ± 0.0007	–	O=CO [formic acid]
1119.13 ± 1.6	196.1 ± 0.2	1.41969 ± 0.00078	–	COC(=O)CCC(=O)OC [dimethyl 1,4-butanedioate]
1087.67 ± 0.63	214.2 ± 0.2	1.42454 ± 0.0007	–	COC(=O)CCCC(=O)OC [dimethyl pentanedioate]
1061.72 ± 0.56	–	1.42825 ± 0.0007	115 ± 1	COC(=O)CCCCC(=O)OC [dimethyl 1,6-hexanedioate]
